Reference: the kinase profiling compilation of Christmann-Franck et al. (2016)

Key:
Experiment in all cases: radiometric filter-binding kinase assay, Kinaseprofiler
[1] = biological target: MAPK12 (human) (UniProt P53778); conditions: ATP 15 µM
[2] = biological target: WNK3 (human) (UniProt Q9BYP7); conditions: ATP 200 µM
[3] = biological target: NEK6 (human) (UniProt Q9HC98); conditions: ATP 45 µM
[4] = biological target: CDK6 CCND3 (human) (UniProt P30281+Q00534); conditions: ATP 200 µM
[5] = biological target: INSR (human) (UniProt P06213)
INSR (human), sequence (P06213 whole entry, looked up): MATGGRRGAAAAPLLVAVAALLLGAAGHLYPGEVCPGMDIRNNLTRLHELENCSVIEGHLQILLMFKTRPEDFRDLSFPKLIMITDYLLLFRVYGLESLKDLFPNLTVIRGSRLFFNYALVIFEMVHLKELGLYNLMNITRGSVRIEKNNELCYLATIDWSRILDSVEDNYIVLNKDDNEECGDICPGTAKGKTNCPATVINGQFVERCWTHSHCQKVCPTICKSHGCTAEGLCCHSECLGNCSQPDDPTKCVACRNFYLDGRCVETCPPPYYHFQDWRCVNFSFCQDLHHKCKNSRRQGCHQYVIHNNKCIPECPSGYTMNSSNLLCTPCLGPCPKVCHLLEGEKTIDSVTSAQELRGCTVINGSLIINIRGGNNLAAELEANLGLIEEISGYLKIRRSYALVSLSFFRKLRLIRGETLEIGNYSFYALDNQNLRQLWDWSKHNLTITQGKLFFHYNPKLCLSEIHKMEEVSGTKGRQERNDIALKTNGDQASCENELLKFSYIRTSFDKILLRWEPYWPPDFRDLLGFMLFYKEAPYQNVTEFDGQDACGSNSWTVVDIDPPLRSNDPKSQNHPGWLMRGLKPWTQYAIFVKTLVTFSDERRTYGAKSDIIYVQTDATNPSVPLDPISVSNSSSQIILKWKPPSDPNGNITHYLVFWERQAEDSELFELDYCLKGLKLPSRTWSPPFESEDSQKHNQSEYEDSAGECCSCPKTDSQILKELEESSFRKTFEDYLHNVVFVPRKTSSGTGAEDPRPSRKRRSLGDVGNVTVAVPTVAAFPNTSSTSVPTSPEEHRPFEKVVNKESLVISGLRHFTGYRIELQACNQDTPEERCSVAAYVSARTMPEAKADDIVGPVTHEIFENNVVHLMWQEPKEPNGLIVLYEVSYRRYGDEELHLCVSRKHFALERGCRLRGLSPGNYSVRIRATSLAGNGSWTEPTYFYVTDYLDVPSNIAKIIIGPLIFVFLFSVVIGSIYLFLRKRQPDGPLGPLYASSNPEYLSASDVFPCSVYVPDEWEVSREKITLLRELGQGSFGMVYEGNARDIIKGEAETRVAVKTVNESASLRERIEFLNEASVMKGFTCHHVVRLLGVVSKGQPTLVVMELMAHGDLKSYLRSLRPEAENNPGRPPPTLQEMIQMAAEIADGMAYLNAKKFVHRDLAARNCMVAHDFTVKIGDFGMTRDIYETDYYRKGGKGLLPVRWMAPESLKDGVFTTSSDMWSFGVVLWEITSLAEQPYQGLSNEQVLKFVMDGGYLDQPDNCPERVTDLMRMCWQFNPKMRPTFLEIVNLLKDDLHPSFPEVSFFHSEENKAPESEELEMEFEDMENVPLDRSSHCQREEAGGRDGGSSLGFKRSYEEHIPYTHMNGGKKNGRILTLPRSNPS

[6] = biological target: PLK1 (human) (UniProt P53350); conditions: ATP 70 µM
[7] = biological target: CSNK1G2 (human) (UniProt P78368); conditions: ATP 10 µM
[8] = biological target: PTK6 (human) (UniProt Q13882); conditions: ATP 15 µM
[9] = biological target: GRK7 (human) (UniProt Q8WTQ7); conditions: ATP 15 µM
[10] = biological target: PLK3 (human) (UniProt Q9H4B4); conditions: ATP 70 µM
[11] = biological target: IGF1R (human) (UniProt P08069); conditions: compound 1.0 µM
[12] = biological target: SRPK3 (human) (UniProt Q9UPE1); conditions: ATP 15 µM
[13] = biological target: PASK (human) (UniProt Q96RG2); conditions: ATP 15 µM
PASK (human), sequence (Q96RG2 whole entry, looked up): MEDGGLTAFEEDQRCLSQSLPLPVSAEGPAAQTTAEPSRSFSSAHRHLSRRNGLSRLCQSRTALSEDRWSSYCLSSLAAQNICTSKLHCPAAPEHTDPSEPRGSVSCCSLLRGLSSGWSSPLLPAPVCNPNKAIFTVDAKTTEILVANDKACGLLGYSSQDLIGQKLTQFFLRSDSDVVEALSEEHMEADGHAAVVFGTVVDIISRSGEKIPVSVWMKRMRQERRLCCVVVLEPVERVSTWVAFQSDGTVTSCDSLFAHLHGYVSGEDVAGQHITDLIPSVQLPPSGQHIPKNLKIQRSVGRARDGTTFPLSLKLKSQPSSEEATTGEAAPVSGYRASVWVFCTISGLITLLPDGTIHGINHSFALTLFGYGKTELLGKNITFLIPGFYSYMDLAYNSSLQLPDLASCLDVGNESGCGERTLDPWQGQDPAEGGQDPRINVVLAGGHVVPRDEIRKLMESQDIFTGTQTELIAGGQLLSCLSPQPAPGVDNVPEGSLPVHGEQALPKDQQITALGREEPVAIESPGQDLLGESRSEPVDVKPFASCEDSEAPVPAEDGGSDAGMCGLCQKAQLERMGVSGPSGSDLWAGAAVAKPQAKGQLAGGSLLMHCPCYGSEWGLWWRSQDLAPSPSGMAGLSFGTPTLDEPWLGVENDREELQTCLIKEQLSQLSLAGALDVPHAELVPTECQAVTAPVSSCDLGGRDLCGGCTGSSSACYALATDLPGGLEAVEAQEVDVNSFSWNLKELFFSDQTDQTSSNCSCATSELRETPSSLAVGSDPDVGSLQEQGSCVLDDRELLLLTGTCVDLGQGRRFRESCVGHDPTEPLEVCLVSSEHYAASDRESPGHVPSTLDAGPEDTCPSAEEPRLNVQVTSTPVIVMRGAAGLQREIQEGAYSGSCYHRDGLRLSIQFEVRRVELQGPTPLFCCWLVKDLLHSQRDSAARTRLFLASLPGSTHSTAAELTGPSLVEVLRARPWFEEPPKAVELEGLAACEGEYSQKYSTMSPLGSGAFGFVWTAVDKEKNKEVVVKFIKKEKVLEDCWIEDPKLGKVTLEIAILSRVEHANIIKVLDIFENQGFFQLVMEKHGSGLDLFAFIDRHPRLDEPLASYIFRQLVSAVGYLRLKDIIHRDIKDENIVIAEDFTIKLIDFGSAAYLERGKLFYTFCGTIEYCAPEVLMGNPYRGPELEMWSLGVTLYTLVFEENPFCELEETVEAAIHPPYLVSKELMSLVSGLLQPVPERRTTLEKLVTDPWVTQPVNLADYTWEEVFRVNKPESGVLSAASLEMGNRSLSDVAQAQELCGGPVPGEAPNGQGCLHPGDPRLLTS

[14] = biological target: RIPK2 (human) (UniProt O43353); conditions: ATP 120 µM
[15] = biological target: PRKCZ (human) (UniProt Q05513); conditions: ATP 15 µM
[16] = biological target: MAP3K7 (human) (UniProt O43318); conditions: ATP 45 µM
[17] = biological target: EPHB1 (human) (UniProt P54762); conditions: ATP 200 µM
[18] = biological target: TSSK1B (human) (UniProt Q9BXA7); conditions: ATP 15 µM
[19] = biological target: BMX (human) (UniProt P51813); conditions: ATP 45 µM
BMX (human), sequence (P51813 whole entry, looked up): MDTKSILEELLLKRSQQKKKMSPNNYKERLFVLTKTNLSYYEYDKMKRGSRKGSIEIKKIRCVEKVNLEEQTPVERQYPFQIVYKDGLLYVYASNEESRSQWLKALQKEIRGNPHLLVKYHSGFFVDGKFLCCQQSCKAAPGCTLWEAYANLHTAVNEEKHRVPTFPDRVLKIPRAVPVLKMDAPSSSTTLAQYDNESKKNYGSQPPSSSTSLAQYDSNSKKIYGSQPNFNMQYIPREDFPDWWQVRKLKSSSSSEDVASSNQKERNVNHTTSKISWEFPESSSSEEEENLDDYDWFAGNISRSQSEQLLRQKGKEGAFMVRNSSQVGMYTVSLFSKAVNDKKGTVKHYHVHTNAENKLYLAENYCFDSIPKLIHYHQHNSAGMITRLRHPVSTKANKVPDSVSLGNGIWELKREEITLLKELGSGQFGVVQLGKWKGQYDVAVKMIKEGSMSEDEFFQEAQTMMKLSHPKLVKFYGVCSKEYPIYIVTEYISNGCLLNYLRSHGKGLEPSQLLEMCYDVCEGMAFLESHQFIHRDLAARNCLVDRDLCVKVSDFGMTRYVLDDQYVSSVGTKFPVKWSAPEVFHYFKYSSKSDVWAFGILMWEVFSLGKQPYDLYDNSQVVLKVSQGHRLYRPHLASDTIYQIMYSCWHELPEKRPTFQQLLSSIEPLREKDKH

[20] = biological target: PAK6 (human) (UniProt Q9NQU5); conditions: ATP 10 µM
[21] = biological target: SGK3 (human) (UniProt Q96BR1); conditions: ATP 155 µM
[22] = biological target: GSG2 (human) (UniProt Q8TF76); conditions: ATP 70 µM
GSG2 (human), sequence (Q8TF76 whole entry, looked up): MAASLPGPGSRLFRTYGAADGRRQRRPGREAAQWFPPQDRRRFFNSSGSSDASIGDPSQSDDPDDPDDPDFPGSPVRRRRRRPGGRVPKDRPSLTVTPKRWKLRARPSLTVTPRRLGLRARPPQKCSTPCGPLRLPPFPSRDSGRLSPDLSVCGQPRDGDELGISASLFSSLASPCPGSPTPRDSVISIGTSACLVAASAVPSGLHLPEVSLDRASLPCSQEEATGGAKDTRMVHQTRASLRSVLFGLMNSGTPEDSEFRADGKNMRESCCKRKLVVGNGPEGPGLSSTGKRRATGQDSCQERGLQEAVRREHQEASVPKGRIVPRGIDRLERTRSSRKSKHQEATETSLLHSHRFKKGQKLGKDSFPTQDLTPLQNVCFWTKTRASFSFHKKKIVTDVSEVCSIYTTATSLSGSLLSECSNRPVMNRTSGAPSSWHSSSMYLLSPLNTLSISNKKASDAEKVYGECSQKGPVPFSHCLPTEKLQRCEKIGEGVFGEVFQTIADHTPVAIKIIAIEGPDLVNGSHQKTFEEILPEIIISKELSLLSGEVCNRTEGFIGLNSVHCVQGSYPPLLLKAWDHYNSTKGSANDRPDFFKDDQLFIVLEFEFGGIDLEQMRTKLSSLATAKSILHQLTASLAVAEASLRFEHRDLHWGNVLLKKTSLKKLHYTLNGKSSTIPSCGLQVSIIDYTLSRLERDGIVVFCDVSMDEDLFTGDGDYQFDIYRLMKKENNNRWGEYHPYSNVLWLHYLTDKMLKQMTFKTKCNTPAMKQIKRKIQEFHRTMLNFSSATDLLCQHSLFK

[23] = biological target: PRKCQ (human) (UniProt Q04759); conditions: ATP 15 µM
[24] = biological target: FRK (human) (UniProt P42685); conditions: ATP 155 µM
[25] = system: TEK (human), Q02763 [Q939H/Q940H]; conditions: ATP 200 µM
[26] = biological target: FGFR1 (human) (UniProt P11362); conditions: ATP 200 µM
[27] = biological target: STK10 (human) (UniProt O94804); conditions: ATP 200 µM
[28] = biological target: MAPK14 (human) (UniProt Q16539); conditions: ATP 90 µM

MAPK12 (human), sequence (P53778 whole entry, looked up): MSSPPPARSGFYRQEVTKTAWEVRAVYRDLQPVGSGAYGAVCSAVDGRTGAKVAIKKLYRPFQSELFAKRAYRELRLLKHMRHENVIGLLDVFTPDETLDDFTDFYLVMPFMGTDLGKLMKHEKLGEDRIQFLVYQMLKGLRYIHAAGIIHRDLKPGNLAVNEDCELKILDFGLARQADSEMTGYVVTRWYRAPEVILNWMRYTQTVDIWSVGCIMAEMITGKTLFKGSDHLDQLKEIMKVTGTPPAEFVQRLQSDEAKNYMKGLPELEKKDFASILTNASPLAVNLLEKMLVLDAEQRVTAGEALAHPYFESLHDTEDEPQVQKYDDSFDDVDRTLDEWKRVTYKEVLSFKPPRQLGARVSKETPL
NEK6 (human), sequence (Q9HC98 whole entry, looked up): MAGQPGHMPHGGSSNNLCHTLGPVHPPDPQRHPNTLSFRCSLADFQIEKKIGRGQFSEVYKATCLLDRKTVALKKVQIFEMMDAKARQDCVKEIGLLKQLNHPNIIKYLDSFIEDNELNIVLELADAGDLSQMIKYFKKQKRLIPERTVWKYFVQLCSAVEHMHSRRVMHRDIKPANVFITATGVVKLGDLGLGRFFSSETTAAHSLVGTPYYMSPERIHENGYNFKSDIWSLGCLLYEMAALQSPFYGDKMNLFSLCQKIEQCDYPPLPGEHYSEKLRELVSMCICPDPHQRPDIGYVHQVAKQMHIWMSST

Q: What does the source list for O=C1c2ccccc2-c2n[nH]c3cccc1c23?
A: residual activity ([1]; compound 1.0 µM): 82%; residual activity ([1]; compound 10.0 µM): 61%; residual activity ([2]; compound 1.0 µM): 87%; residual activity ([2]; compound 10.0 µM): 77%; residual activity ([3]; compound 1.0 µM): 107%; residual activity ([3]; compound 10.0 µM): 101%; residual activity ([4]; compound 1.0 µM): 76%; residual activity ([4]; compound 10.0 µM): 31%; residual activity ([5]; compound 1.0 µM, ATP 45 µM): 70%; residual activity ([5]; compound 1.0 µM, ATP 200 µM): 81%; residual activity ([5]; compound 10.0 µM, ATP 45 µM): 26%; residual activity ([5]; compound 10.0 µM, ATP 200 µM): 47%; residual activity ([6]; compound 1.0 µM): 69%; residual activity ([6]; compound 10.0 µM): 64%; residual activity ([7]; compound 1.0 µM): 70%; residual activity ([7]; compound 10.0 µM): 6%; residual activity ([8]; compound 1.0 µM): 95%; residual activity ([8]; compound 10.0 µM): 95%; residual activity ([9]; compound 1.0 µM): 71%; residual activity ([9]; compound 10.0 µM): 27%; residual activity ([10]; compound 1.0 µM): 94%; residual activity ([10]; compound 10.0 µM): 82%; residual activity ([11]; ATP 45 µM): 92%; residual activity ([11]; ATP 200 µM): 91%; residual activity ([12]; compound 1.0 µM): 90%; residual activity ([12]; compound 10.0 µM): 82%; residual activity ([13]; compound 1.0 µM): 125%; residual activity ([13]; compound 10.0 µM): 81%; residual activity ([14]; compound 1.0 µM): 70%; residual activity ([14]; compound 10.0 µM): 52%; residual activity ([15]; compound 1.0 µM): 110%; residual activity ([15]; compound 10.0 µM): 106%; residual activity ([16]; compound 1.0 µM): 41%; residual activity ([16]; compound 10.0 µM): 19%; residual activity ([17]; compound 1.0 µM): 91%; residual activity ([17]; compound 10.0 µM): 29%; residual activity ([18]; compound 1.0 µM): 75%; residual activity ([18]; compound 10.0 µM): 49%; residual activity ([19]; compound 1.0 µM): 59%; residual activity ([19]; compound 10.0 µM): 18%; residual activity ([20]; compound 1.0 µM): 91%; residual activity ([20]; compound 10.0 µM): 49%; residual activity ([21]; compound 1.0 µM): 85%; residual activity ([21]; compound 10.0 µM): 58%; residual activity ([22]; compound 1.0 µM): 10%; residual activity ([22]; compound 10.0 µM): -1%; residual activity ([23]; compound 1.0 µM): 90%; residual activity ([23]; compound 10.0 µM): 76%; residual activity ([24]; compound 1.0 µM): 91%; residual activity ([24]; compound 10.0 µM): 58%; residual activity ([25]; compound 1.0 µM): 95%; residual activity ([25]; compound 10.0 µM): 63%; residual activity ([26]; compound 1.0 µM): 39%; residual activity ([26]; compound 10.0 µM): 4%; residual activity ([27]; compound 1.0 µM): 87%; residual activity ([27]; compound 10.0 µM): 62%; residual activity ([28]; compound 1.0 µM): 96%; residual activity ([28]; compound 10.0 µM): 85%
